According to patent US8318809B2, “Compositions and methods for treating jellyfish stings” (priority 2006, dated 2012):
Where a name gives a salt, the structure may show the parent alone.

Tests used:
[1] = tested on: sea wasp (Chiropsalmus quadumanus) stings; experiment: Jellyfish sting test on inner forearm of human test subjects, sea wasp; assay type: in vivo; conditions: for maintenance of relief: 5% lidocaine in 80:20 water:propylene glycol, 5% benzocaine in 90:10 propylene glycol:acetone, control sites decreased after 2-3 h; for red rash at sting site: 5% lidocaine or 5% benzocaine formulations vs other treatments; for time to sting relief: 10% lidocaine in 50:50 water:propylene glycol, 10% benzocaine in 90:10 propylene glycol:acetone
Excerpt: These are the two most common types of stinging jellies that occur with frequency and/or regularity in normal swimming waters on the USA east coast north of Cape Canaveral.
(§1) Living healthy specimens were captured locally using trawls and dip-nets. They were maintained in flowing seawater aquariums (ca. 500 liters) for days-weeks; sea nettles maintained for long periods were fed live minnows (mummichugs).
Healthy, actively swimming jellyfish were used in all examples, and the same procedure was applied in all cases.
Stings from sea wasps were induced by manually holding a live specimen by its bell, and dragging the tentacles across the inner forearm of the test subject. […] Stings from the larger sea nettles were induced using tweezers to manually remove tentacles from living specimens and dragging them across the inner lower forearms of test subjects.
(§2) Products were applied to sting sites within 1-2 minutes unless otherwise noted below. […] Thus one forearm was used for each treatment effect, and each forearm included two sting sites: one received a treatment while the other served as an untreated control. Tests were either conducted simultaneously in duplicate using two subjects, or sequentially several hours apart using the same subject.

[2] = tested on: tongue; experiment: Minimum response time to topically applied anesthetic on the tongue; assay type: in vivo, human; conditions: Example 5; 5 mg of pure compound applied to the tongue
Experimental: Two formulations were tested in the present example to test the minimum response time of the human body to topically applied lidocaine and benzocaine:
5 mg of pure benzocaine applied to the tongue

[3] = Solubility in water; assay type: physicochemical; conditions: Example 13 remark
[4] = stated as known; cited from earlier work
[5] = tested on: jellyfish stings; experiment: Jellyfish sting test, jellyfish species not stated; assay type: in vivo, human; conditions: Example 20; 4% lidocaine hydrochloride in water
Excerpt: […] Healthy, actively swimming jellyfish were used in all examples, and the same procedure was applied in all cases. The same human test subjects were used in all experiments, in order to have continuity and be able to qualitatively compare treatment effects among experimental dates.
(§3) Stings from sea wasps were induced by manually holding a live specimen by its bell, and dragging the tentacles across the inner forearm of the test subject. Sea-wasps caused immediate stinging sensations. Stings from the larger sea nettles were induced using tweezers to manually remove tentacles from living specimens and dragging them across the inner lower forearms of test subjects. Sea-nettle stings were of the same or somewhat more intensity as those of sea wasps, but were not felt until about 15 s after contact, perhaps because the tentacles have visibly thicker gelatinous coatings.
as §2

[6] = tested on: sea nettle (hrysaora quinquecirrha) stings; experiment: Jellyfish sting test on inner forearm of human test subjects, sea nettle; assay type: in vivo
Excerpt: Two genera of jellyfish were used in examples 2-19 described below: Chiropsalmus quadumanus, a cubomedusa and member of the Scyphozoa, also known as the sea wasp; and another scyphozoan jellyfish, hrysaora quinquecirrha, commonly called the sea nettle. These are the two most common types of stinging jellies that occur with frequency and/or regularity in normal swimming waters on the USA east coast north of Cape Canaveral.
as §1
For examples 3-19, with the exception of the commercially available spray products and the meat tenderizer paste solution, all of the other test solutions were in liquid form and were applied using a one milliliter pipetter and sterile tips.
For examples 3-19 below, the following general procedures were followed. Healthy, actively swimming jellyfish were used in all examples, and the same procedure was applied in all cases. The same human test subjects were used in all experiments, in order to have continuity and be able to qualitatively compare treatment effects among experimental dates.
as §3
Products were applied to sting sites within 1-2 minutes unless otherwise noted below. […] Thus one forearm was used for each treatment effect, and each forearm included two sting sites: one received a treatment while the other served as an untreated control. […]

[7] = tested on: jellyfish stings; experiment: Beach surveys of beachgoers stung by a jellyfish; assay type: in vivo, human
Experimental: The beach surveys were conducted on beachgoers that stated they had been stung by a jellyfish. All participants voluntarily filled out an 8 question survey.
Locations: Tybee Island, Ga., Saint Simons Island, Ga., Hilton Head, S.C., Jacksonville beach, Fla., Daytona beach, Fla.
Time to application: Varied based on the person surveyed. Average times from sting to treatment ranged from 5 to 15 minutes.
Application to relief: Most respondents noted that they began to feel relief at the 1 minute mark. Based on an average level of affected area (less than 10% body coverage) the respondents noted virtually all the pain subsided by the 5 minute mark. (Most of the respondents who noted “some relief” departed within 2 minutes, which is the approximately time it took them to fill out the survey. Some of these respondents later returned to report total relief, but this is not shown in the data below). The results are presented in Table 3 and FIG. 2, below (total respondents: 232).

[8] = tested on: chigger bites; experiment: Chigger bite treatment, one subject; assay type: in vivo, human; conditions: Example 22; two bites per treatment; lidocaine as 4% solution in water
Excerpt: Subject received 6 chigger bites on inner thigh area. Subject applied the formulation to two of the chigger bites, treated two others with Chigger Rid®, a drug store product, and applied clear finger nail polish, a home remedy, to the final two bites.

[9] = tested on: fire ant bites; experiment: Fire ant bite treatment, one subject; assay type: in vivo, human; conditions: Example 23
Experimental: The subject for this example had substantial experience with fire ant bites, with general symptoms of blistering, itching, pain associated with the bites. […] Subject received 7 fire ant bites while gardening outside. Subject applied the formulation to the seven bites approximately 15 minutes after the bites occurred.

[10] = tested on: nematocysts of sea nettle tentacles; experiment: Microscopy observations of nematocyst responses to product exposure; conditions: Example 11; pipetted onto tentacles in seawater, viewed at 60×; lidocaine as 10% solution in seawater
Excerpt: Tentacles were removed using tweezers from an actively swimming sea nettle, placed in a glass Petri dish in seawater collected from the jellyfish tank (same salinity), and viewed at 60× under a zoom stereomicroscope while various liquid chemicals were pipetted directly onto the tentacles.

[11] = 4% Lidocaine and water, pump or trigger spray, total respondents 232

Compound: N [Ammonia]
- treatment effect on sting pain ([1]; Example 3, sea wasps 2″ bell, meat tenderizer paste, ammonia and vinegar store-bought full strength, vs untreated control site): increased the initial pain

Compound: CCOC(=O)c1ccc(N)cc1 [benzocaine]
- maintenance of relief ([1]; Example 3): maintained until the stinging sensation eventually decreased in control sites
- red rash at sting site ([1]; Example 3, sea wasps 2″ bell): substantially reduced
- time to sting relief ([1]; Example 4, sea wasp 3″ bell): 60 to 90 s
- onset of localized numbness [2]: 30 s
- dissolves in water [3]: does not dissolve in water
- solubility in water [4]: sparingly soluble in water

Compound: CCN(CC)CC(=O)Nc1c(C)cccc1C [lidocaine hydrochloride]
- time to initial pain relief after application [5]: around one

Compound: CCN(CC)CC(=O)Nc1c(C)cccc1C [lidocaine]
- maintenance of relief ([1]; Example 3): maintained until the stinging sensation eventually decreased in control sites
- red rash at sting site ([1]; Example 3, sea wasps 2″ bell): substantially reduced
- redness at the sting site ([1]; Example 4, 10% lidocaine formulation compared with 10% benzocaine formulation): appeared to reduce redness at the sting site more than the benzocaine formulation
- time to sting relief ([1]; Example 4, sea wasp 3″ bell): 30 to 60 s
- rash ([1]; Example 6, 10% compared to 5% lidocaine in 80:20 water:propylene glycol): somewhat less pronounced
- pain relief ([1]; Example 6, both 5% and 10% lidocaine in 80:20 water:propylene glycol, sea wasp 3″ bell, compared to no treatment): substantial pain relief
- time to substantial relief ([1]; Example 7, 10% lidocaine in 80:20 water:propylene glycol without acetic acid, sea wasps 2″ bell, untreated stinging lasted about 30 minutes): about 1 minute
- relief after delayed application ([1]; Example 8, 10% lidocaine in 80:20 water:propylene glycol applied 5 min after sting): provided relief as though applied immediately
- time to relief ([1]; Example 8, 10% lidocaine in 80:20 water:propylene glycol applied immediately, sea wasp 2″ bell): approximately 1 minute
- performance as judged by the test subjects ([6]; Example 9, 10% lidocaine in water only compared with 10% lidocaine in 80:20 water:propylene glycol, sea nettle 6″ bell): slightly superior
- acted faster by ([6]; Example 16, 15% lidocaine in water compared with 10% lidocaine in water, sea nettle 4″ bell): 10 to 15 s
- onset of localized numbness [2]: 30 s
- time at which most respondents began to feel relief ([7]; 4% Lidocaine and water spray, 5 to 15 minutes from sting to treatment): 1 min
- time by which virtually all the pain subsided ([7]; 4% Lidocaine and water spray, affected area less than 10% body coverage): ≤ 5 min
- number of respondents: Much relief [7, 11]: 128
- number of respondents: No relief [7, 11]: 0
- number of respondents: Some relief [7, 11]: 32
- number of respondents: Total relief [7, 11]: 72
- itching of chigger bites after treatment [8]: ceased itching within minutes of application with no further symptoms
- blister formation ([9]; 4% lidocaine and water applied approximately 15 minutes after the bites): typical blisters did not form
- relief from pain and itching ([9]; 4% lidocaine and water applied to 7 bites approximately 15 minutes after the bites): complete relief from pain and itching
- nematocyst firing [10]: did not cause nematocysts from a new tentacle to fire

Compound: NC(N)=O [urea]
- effect on the soothing effect of lidocaine ([6]; Example 12, 10% urea added to 10% lidocaine in water): did not appear to help or impede
